Laboratory results as given in patent US10793561B2, “1,8-naphthyridinone compounds and uses thereof” (NUVATION BIO INC., priority 2017, dated 2020).

Legend:
adenosine A2A receptor [1] = target: T1, adenosine A2A receptor (Homo sapiens (Human), UniProt P29274); experiment: Radioligand binding competition assay, adenosine A2A receptor; settings: 3000 nM compound
Description: Binding of selected compounds to the adenosine A1, A2A, A2B, and A3 receptors was tested using a binding competition assay.
The general protocol for the radioligand binding competition assay was as follows. Competition binding was performed in duplicate in the wells of a 96 well plate (Master Block, Greiner, 786201) containing binding buffer (optimized for each receptor), membrane extracts (amount of protein/well optimized for each receptor), radiotracer (final concentration optimized for each receptor), and test compound. Nonspecific binding was determined by co-incubation with 200-fold excess of cold competitor. The samples were incubated in a final volume of 0.1 mL at 25° C. for 60 minutes and then filtered over filter plates. Filters were washed six times with 0.5 mL of ice-cold washing buffer (optimized for each receptor) and 50 μL of Microscint 20 (Packard) were added on each filter. The filter plates were sealed, incubated 15 min on an orbital shaker and scintillation counted with a TopCount for 30 sec/filter.
For the adenosine A2A receptor radioligand binding assay, the following modifications were made to the general protocol. GF/C filters (Perkin Elmer, 6005174), presoaked in 0.01% Brij for 2 h at room temperature were used. Filters were washed six times with 0.5 mL of ice-cold washing buffer (50 mM Tris pH 7.4) and 50 μL of Microscint 20 (Packard) was added in each well. The plates were then incubated for 15 min on an orbital shaker and then counted with a TopCount™ for 1 min/well.
Another radioligand binding assay was used to evaluate the binding affinity for the adenosine A2A receptor assay was performed in duplicate in the wells of a 384 plate. Assay buffer contained DPBS 500 mM, MgCl2 0.1 mM, and 1% DMSO. Membrane-bead suspension was prepared by mixing 25.98 μL of human adenosine A2A membrane preparation (Perkin Elmer, RBHA2AM400UA) at 33.4 pg/mL, 28 μL of ADA at 20 pg/mL, and 932 μL of SPA beads at 3.33 mg/mL) and incubated the mixture for 20 min at room temperature. Mixed 20 μL of radiotracer (^3H-SCH 58261) at 15 nM to each well containing test articles at various concentrations and centrifuge the plate at 1000 rpm for 1 minute. Added 30 μL of the membrane-bead suspension to each well. Sealed the plates and incubated for 1 hr at room temperature with vigorous mixing on a plate mixer. Plates were read on Microbeta^2 (Perkin Elmer, 2450-0010).
CHO-K1-A3 cell membranes, 1.5 μg/well; a binding buffer comprising HEPES 25 mM pH 7.4, MgCl2 5 mM, CaCl2 1 mM, 0.5% BSA; a wash buffer comprising HEPES 25 mM pH 7.4, MgCl2 5 mM, CaCl2 1 mM; a Unifilter GF/C—treated for 2 h with 0.5% BS; and 0.4 nM of ^125I-AB-MECA as the tracer. The results of the binding assay are shown in Table B1-1 and are shown as percent residual binding at a given concentration. Percent of residual binding means binding of a compound in the presence of competitor normalized to the amount of binding in the absence of competitor. […] For example, compound 1 strongly bound to A2A (30% residual binding at a concentration of 100 nM), A1 (−3% residual binding at 300 nM) and A2B, (−9% residual binding at 300 nM) but weakly bound to A3 (96% residual binding at 300 nM).

adenosine A2A receptor [2] = target: T1, adenosine A2A receptor; experiment: cAMP assay in HEK-293 cells expressing human recombinant adenosine A2A receptor; type: cell-based; settings: for inhibition at 0.1 µM: HEK293, 100 nM compound, read-out: A2a cAMP % inh @ 100 nM
Description: The functional activity of compounds was tested using one of the two assays to detect the present of cAMP. Activation of G-protein coupled receptors (such as A2A) results in activation of adenylcyclase which converts ATP into cAMP which is used as a downstream signaling molecule. Therefore, molecules which act as GPCR (or specifically A2A receptor) antagonists cause a decrease in intracellular cAMP concentration.
Both assays used HEK-293 cells expressing human recombinant adenosine A2A receptor were grown prior to the test in media without antibiotic. Assay 1: The cells were detached by gentle flushing with PBS-EDTA (5 mM EDTA), recovered by centrifugation and suspended in assay buffer (KRH: 5 mM KCl, 1.25 mM MgSO4, 124 mM NaCl, 25 mM HEPES, 13.3 mM Glucose, 1.25 mM KH2PO4, 1.45 mM CaCl2, 0.5 g/L BSA, supplemented with Rolipram).
12 μL of cells were mixed with 6 μL of the test compound at increasing concentrations and then incubated for 10 min. Thereafter 6 μL of the reference agonist was added at a final concentration corresponding to the historical EC80. The plates were then incubated for 30 min at room temperature. After addition of the lysis buffer and 1 hour incubation, cAMP concentrations were estimated, according to the manufacturer specification, with the HTRF® kit.
Assay 2: 100 nL of test articles at 100× of final concentration were transferred to assay plate by Echo. Cells were washed twice with 5 mL of PBS […]. After aspirating the PBS and adding 1.5 mL versine, cells were incubated at 37° C. for 2-5 min. After centrifugation, 4 mL of medium was added and adjusted cell density to 5,000 cells/well with stimulation buffer. 10 μL of cells were aliquoted to the assay plate, centrifuged at 1000 rpm for 1 minute, and incubated for 60 minutes at room temperature. 5 μL 4× Eu-cAMP tracer solution and 5 μL 4× Ulight™-anti-cAMP solution were added to assay plate, followed by centrifugation and 60-minute incubation at room temperature. Plates were read on EnVision.

T1 sequence (P29274 whole entry): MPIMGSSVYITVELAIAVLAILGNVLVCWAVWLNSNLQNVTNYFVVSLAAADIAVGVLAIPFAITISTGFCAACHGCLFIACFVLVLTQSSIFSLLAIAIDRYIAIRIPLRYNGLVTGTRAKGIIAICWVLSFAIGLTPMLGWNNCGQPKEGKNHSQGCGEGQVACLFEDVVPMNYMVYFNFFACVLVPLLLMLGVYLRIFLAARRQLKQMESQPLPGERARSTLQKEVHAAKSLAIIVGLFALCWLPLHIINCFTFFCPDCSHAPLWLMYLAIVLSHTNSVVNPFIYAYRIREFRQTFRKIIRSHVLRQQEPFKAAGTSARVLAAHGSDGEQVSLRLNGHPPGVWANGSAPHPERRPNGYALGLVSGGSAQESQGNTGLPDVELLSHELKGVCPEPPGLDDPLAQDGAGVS

| A2A radioligand binding competition assay % residual binding @ 3000 nM (adenosine A2A receptor [1]) | inhibition at 0.1 µM (adenosine A2A receptor [2]) [%] | inhibition at 3 µM (adenosine A2A receptor [1]; read-out: A2a binding % inh @ 3000 nM) [%] | IC50 (adenosine A2A receptor [2]; second cAMP table) [nM] | IC50 (adenosine A2A receptor [2]; first cAMP table) [nM] | SMILES |
| --- | --- | --- | --- | --- | --- |
| 16/ND/ND/ND % | 83 |  |  |  | O=c1cc[nH]c2nc(-c3ccccc3)c(-c3ccc4ncsc4c3)cc12 [Compound No. 1.24, 6-(benzo[d]thiazol-6-yl)-7-phenyl-1,8-naphthyridin-4(1H)-one] |
| 25/ND/ND/ND % | 74 |  |  |  | O=c1ccc2cc(-c3cc(Cl)c4[nH]cnc4c3)c(-c3ccccc3)nc2[nH]1 [Compound No. 1.19, 6-(7-chloro-1H-benzo[d]imidazol-5-yl)-7-phenyl-1,8-naphthyridin-2(1H)-one] |
| 106/ND/ND/ND % | 0 |  |  |  | Cn1ccc(=O)c2cc(-c3ccc4ncccc4c3)c(-c3ccccc3)nc21 [Compound No. 1.8, 1-methyl-7-phenyl-6-(quinolin-6-yl)-1,8-naphthyridin-4(1H)-one] |
|  |  | 78 | 3220 |  | O=c1cc[nH]c2nc(-n3cccn3)c(-c3ccc4ncccc4c3)cc12 [Compound No. 1.100, 7-(1H-pyrazol-1-yl)-6-(quinolin-6-yl)-1,8-naphthyridin-4(1H)-one] |
| 76/ND/ND/ND % | 23 |  |  |  | O=c1cc[nH]c2nc(-c3ccccc3)c(-c3ccc4ccccc4c3)cc12 [Compound No. 1.16, 6-(naphthalen-2-yl)-7-phenyl-1,8-naphthyridin-4(1H)-one] |
| 38/ND/ND/ND % | 61 |  |  |  | O=c1cc[nH]c2nc(-c3ccncc3)c(-c3ccc4ncccc4c3)cc12 [Compound No. 1.18, 7-(pyridin-4-yl)-6-(quinolin-6-yl)-1,8-naphthyridin-4(1H)-one] |
| 60/ND/ND/ND % | 40 |  |  |  | O=c1ccc2cc(-c3ccc4nccnc4c3)c(-c3ccccc3)nc2[nH]1 [Compound No. 1.10, 7-phenyl-6-(quinoxalin-6-yl)-1,8-naphthyridin-2(1H)-one] |
| 0/ND/ND/ND % |  |  |  | 18.8 | Cc1ccc(-c2nc3[nH]ccc(=O)c3cc2-c2ccc3ncccc3c2)o1 [Compound No. 1.25, 7-(5-methylfuran-2-yl)-6-(quinolin-6-yl)-1,8-naphthyridin-4(1H)-one] |
